Reference: article PMC6669322, “Small Molecule Binding to Alzheimer Risk Factor CD33 Promotes Aβ Phagocytosis” (iScience, 2019)

Biological target: CD33 R119A (Homo sapiens, UniProt P20138, R119A)
Assay: surface plasmon resonance (SPR), CD33 R119A mutant
Type: binding
Parameters: DNA encoding D18 to H143 of human CD33; octa-histidine tag with TEV protease cleavage site (N); made in house; host or cells: E. coli BL21* (the general protein production text; the R119A protein is not described on its own)
Conditions: P22 as analyte, captured CD33 R119A
Excerpt: We next performed surface plasmon resonance (SPR) measurements on P22 binding to CD33 wild-type, and selected mutants, to obtain detailed kinetic data (see Transparent Methods). The CD33 V-set domain has a free cysteine residue (C36), which caused anomalous results in some of our SPR experiments due to disulfide-linked oligomers forming in solution.
P22 (β-D-Glucopyranoside, 2-aminoethyl O-[N-[2-(4-cyclohexyl-1H-1,2,3-triazol-1-yl)acetyl]-9-deoxy-9-[(4-hydroxy-3,5-dimethylbenzoyl)amino]-α-neuraminosyl] (2→6)-O-β-D-galactopyranosyl-(1→4)-; CAS registry number [1809735-27-0]) was synthesized as described by Paulson and co-workers (Rillahan et al., 2014). Biotinylated P22 (Figure S1C) was prepared by treatment of a solution of P22 (12 mg, 0.012 mmol) in dimethylformamide (1 mL), with DIPEA (8.6 µL, […]) followed by addition of (+)- biotin N-hydroxysuccinimide ester (4.2 mg, 0.012 mmol), the resulting reaction mixture was then stirred for 2 h at RT. After which the reaction mixture was concentrated in vacuo and purified by reverse phase, performed via preparative HPLC (Stationary phase: RP XBridge Prep C18 OBD- 5µm,19x150mm, Mobile phase: 0.25% NH4HCO3 solution in water, CH3CN) to afford Biotin-P22 (9 mg, yield 60.9%). […]

Chain of CD33 R119A (P20138 18-143 R119A): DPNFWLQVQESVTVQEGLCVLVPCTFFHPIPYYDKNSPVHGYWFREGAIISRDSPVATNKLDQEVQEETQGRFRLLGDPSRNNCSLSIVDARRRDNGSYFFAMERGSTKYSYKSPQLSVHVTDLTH

SMILES: Cc1cc(C(=O)NC[C@@H](O)[C@@H](O)[C@@H]2O[C@@](OC[C@H]3O[C@@H](O[C@H]4[C@H](O)[C@@H](O)[C@H](OCCN)O[C@@H]4CO)[C@H](O)[C@@H](O)[C@H]3O)(C(=O)O)C[C@H](O)[C@H]2NC(=O)Cn2cc(C3CCCCC3)nn2)cc(C)c1O [P22, β-D-Glucopyranoside, 2-aminoethyl O-[N-[2-(4-cyclohexyl-1H-1,2,3-triazol-1-yl)acetyl]-9-deoxy-9-[(4-hydroxy-3,5-dimethylbenzoyl)amino]-α-neuraminosyl] (2→6)-O-β-D-galactopyranosyl-(1→4)-]
- binding observed by SPR: no binding
